From patent publication EP2045266A1, “Methods for treating and diagnosing a cancer secreting cath-D or Alzheimer's disease” (INSERM (Institut National de la Santé et de la Recherche …, priority 2007, dated 2009) come the findings set out here.

Non-standard residues stand in square brackets, D forms with d. Residues, ends and D or L forms follow the SMILES beside them. *: point of attachment. Sta = CC(C)C[C@H](N)[C@@H](O)CC(=O)O; Isovaleryl = CC(C)CC(=O)*

The subject of one assay is SEAP-LRP1β. Put plainly: LRP1 ectodomain secretion assay (SEAP activity in the medium). It counts as cell-based. The following applies: cath-D expressing COS cells, pepstatin 100 µM; Fig. 5A panel b. The source says:
(§1) • (A) Shedding of LRP1 β chain ectodomain. SEAP activity was quantified in the medium of COS cells transiently transfected with SEAP-LRP1β and β-galactosidase vectors in the absence or presence of cath-D vector (panel a). The mean ± SD of 4 independent determinations with both transfections and measurements carried in duplicate is shown *, p<0.0025 versus control (Student's t-test). […] A representative experiment from a transfection performed in duplicate is shown. Similar results were obtained in another independent experiment. • (B) Cleavage of the LRP1 [349-397] peptide by auto-activated pro-cath-D. Pro-cath-D (500 ng), auto-activated at pH 3.5 for 30 min, was incubated for 2 h with 50 µM of LRP1 [349-397] peptide at pH 3.5. Cleaved peptides were resolved by reverse-phase HPLC and subjected to NH2-terminal sequence analysis. Arrows indicate the 3 cleavage sites. • (C) Production of LRP1 β carboxyl-terminal fragment. COS cells, transfected with Myc-LRP1β in the absence or presence of wild-type or D231 N cath-D, were treated with DAPT (1 µM) or DMSO for 24 h. […]
LRP1 ectodomain secretion assay. […] SEAP activity was normalized to […] activity measured by hydrolysis of o-nitrophenyl-β-D-galactopyranoside in cells lysed in the reporter lysis buffer (Promega).

Assay [1] has as its system LRP1β-CTF. Put plainly: Production of LRP1β carboxyl-terminal fragment in COS cells (immunoprecipitation and immunoblotting). In kind it is cell-based. The following applies: COS cells transfected with Myc-LRP1β, DAPT 1 µM for 24 h; Fig. 5C.
Description: as §1
(§2) Immunoblotting. […] Equal amounts of protein (100 µg) from cell extracts quantitated by the Bradford assay, or equal volumes (80 µl) of conditioned media, were separated by SDS-PAGE on a 7.5 % gel for anti-LRP1β immunoblotting or on a 12 % gel for anti-cath-D immuno-blotting. […]
A general note: In western blotting, separated proteins are transferred to a membrane and probed.

Assay [2] deals with LRP1β-CTF. The assay is described as follows: Production of LRP1β-CTF and shedding of LRP1β in HMF fibroblasts. It counts as cell-based, human. Conditions: DAPT 1 µM, 24 h, Fig. 6B panel a. On the procedure:
(§3) • (A) Pro-cath-D is internalized in part by LRP1. Conditioned media containing labelled pro-cath-D was produced by incubating cath-D expressing 3Y1-Ad12 cells with [S^35]methionine and [S^35]cysteine for 24 h. HMF fibroblasts were transiently transfected with either Luc siRNA or LRP1 siRNA1 and endocytosis of labelled pro-cath-D was performed 48 h post-transfection. For endocytosis, siRNAs-transfected HMF fibroblasts were incubated for 3 h (panel a) or for 18h (panel c) with conditioned medium containing labelled pro-cath-D in the absence or presence of 10 mM M6P. Cell lysates containing endocytosed labelled cath-D were analyzed by SDS-PAGE after immunoprecipitation with M1G8 anti-cath-D antibody (panels a and c). LRP1β expression was monitored in HMF fibroblasts by immunoblotting 48 h post-transfection with either Luc or LRP1 siRNAs (panels b and d). ßactin was used as a loading control. […] LRP1β shedded in the media of HMF fibroblasts after 24 h in the presence of DAPT (1 µM) was detected by immmunoblotting with the monoclonal antibody #3501 directed against the extracellular LRP1 β chain (panel b). […]
as §2

Another assay has as its system HMF fibroblasts. Put plainly: Endocytosis of labelled pro-cath-D in HMF fibroblasts. It counts as cell-based. Conditions: Homo sapiens, Fibroblast, over 3 h, 10 mM M6P, read-out: inhibition of pro-cath-D internalization. On the procedure: as §3
Another assay deals with T1, pro-cath-D (Homo sapiens, UniProt P07339).
T1 construct: the 52, 34, 14 and 4 kDa cath-D fragments were expressed as GST fusion proteins; made in house; host or cells: Escherichia coli BL21 (GST fusion)
Put plainly: GST pull-down: competition for binding of LRP1β (1-476) to GST-pro-cath-D. The following applies: radio-labelled LRP1β (1-476), beads with GST-cath-D/52K, increasing concentration of the peptide; Fig. 2C. On the procedure: • (A) Schematic representation of GST-LRP1β fragments. Shorter GST-LRP1β fragments (F4, F6-F8) were derived from GST-LRP1β (307-479) (F0). The F4 (349-394) GST-LRP1β fragment was then sub-divided into shorter fragments (F5, F9-13). • (B) Binding of pro-cath-D to GST-LRP1β fragments. Radio-labelled pro-cath-D was incubated with beads containing GST-LRP1β fragments or GST. GST proteins bound to beads were stained by Coomassie (panels a, c) and bound pro-cath-D was detected by autoradiography (panels b, d). • (C) Effect of the (349-397) LRP1 peptide for the binding of the extracellular domain of LRP1β (1-476) to pro-cath-D. Schematic representation and numbering of the EGF-like repeats 16 to 22 present in the extracellular domain of LRP1β is shown in panel a. Radio-labelled extracellular domain of LRP1β (1-476) was incubated with beads containing GST-cath-D/52K in the absence or presence of increasing concentration of the (349-397) LRP1 peptide (panel b). GST proteins stained by Coomassie are shown in left panel and bound LRP1β (1-476) in right panel .
GST pull-down assays. [^35S]methionine-labelled pro-cath-D or LRP1β(1-476) were obtained by transcription and translation of pcDNA3.1(-)cath-D or pcONA3.1(+)LRP1β extracellular domain(1-476) expression plasmids, respectively, using the TNT^T7-coupled reticulocyte lysate system (Promega). […]

Assay [3] has as its target auto-activated pro-cath-D (Homo sapiens, UniProt P07339). Put plainly: Cleavage of the LRP1 [349-397] peptide by auto-activated pro-cath-D (HPLC, NH2-terminal sequencing). It counts as biochemical. Conditions: pro-cath-D 500 ng auto-activated at pH 3.5 for 30 min, 2 h with 50 µM peptide at pH 3.5. The text has this:
• (A) Shedding of LRP1 β chain ectodomain. SEAP activity was quantified in the medium of COS cells transiently transfected with SEAP-LRP1β and β-galactosidase vectors in the absence or presence of cath-D vector (panel a). The mean ± SD of 4 independent determinations with both transfections and measurements carried in duplicate is shown *, p<0.0025 versus control (Student's t-test). […] A representative experiment from a transfection performed in duplicate is shown. Similar results were obtained in another independent experiment. • (B) Cleavage of the LRP1 [349-397] peptide by auto-activated pro-cath-D. Pro-cath-D (500 ng), auto-activated at pH 3.5 for 30 min, was incubated for 2 h with 50 µM of LRP1 [349-397] peptide at pH 3.5. Cleaved peptides were resolved by reverse-phase HPLC and subjected to NH2-terminal sequence analysis. Arrows indicate the 3 cleavage sites. • (C) Production of LRP1 β carboxyl-terminal fragment. COS cells, transfected with Myc-LRP1β in the absence or presence of wild-type or D231 N cath-D, were treated with DAPT (1 µM) or DMSO for 24 h. Cells were lysed and the full-length Myc-LRP1β and its carboxy-terminal fragment (LRP1β-CTF) were isolated by immunoprecipitation and visualized by immunoblotting with the monoclonal antibody 11H4. […]

By inhibition is commonly meant the drop in the measured response relative to a control, in per cent.

auto-activated pro-cath-D, sequence (P07339 65-412): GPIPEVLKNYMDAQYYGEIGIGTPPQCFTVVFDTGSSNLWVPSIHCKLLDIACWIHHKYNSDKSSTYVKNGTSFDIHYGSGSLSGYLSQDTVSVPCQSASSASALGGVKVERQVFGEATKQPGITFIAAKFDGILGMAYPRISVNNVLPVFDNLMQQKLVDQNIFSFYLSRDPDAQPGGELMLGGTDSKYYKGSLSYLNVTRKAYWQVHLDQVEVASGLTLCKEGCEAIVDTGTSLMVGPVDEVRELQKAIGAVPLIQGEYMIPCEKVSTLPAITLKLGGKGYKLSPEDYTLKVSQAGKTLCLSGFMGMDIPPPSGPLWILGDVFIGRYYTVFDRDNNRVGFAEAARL
T1 sequence (P07339 21-412): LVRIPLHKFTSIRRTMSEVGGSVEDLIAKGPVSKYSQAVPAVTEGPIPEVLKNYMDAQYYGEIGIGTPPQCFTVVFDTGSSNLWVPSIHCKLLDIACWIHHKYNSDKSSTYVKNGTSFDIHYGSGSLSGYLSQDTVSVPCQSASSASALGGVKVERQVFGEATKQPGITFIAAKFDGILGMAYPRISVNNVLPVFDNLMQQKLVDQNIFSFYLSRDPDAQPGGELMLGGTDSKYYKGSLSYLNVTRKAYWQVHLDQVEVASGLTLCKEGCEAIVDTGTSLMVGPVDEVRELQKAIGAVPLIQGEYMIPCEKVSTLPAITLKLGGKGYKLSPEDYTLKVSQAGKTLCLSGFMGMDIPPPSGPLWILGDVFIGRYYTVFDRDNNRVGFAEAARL

With `CC(C)CC(=O)N[C@H](C(=O)N[C@H](C(=O)N[C@@H](CC(C)C)[C@@H](O)CC(=O)N[C@@H](C)C(=O)N[C@@H](CC(C)C)[C@@H](O)CC(=O)O)C(C)C)C(C)C` [pepstatin A] (Isovaleryl-VV[Sta]A[Sta]-OH), the SEAP-LRP1β ectodomain shedding result with SEAP-LRP1β is listed as “prevented”. Take `C[C@H](NC(=O)Cc1cc(F)cc(F)c1)C(=O)N[C@H](C(=O)OC(C)(C)C)c1ccccc1` [DAPT]: the “presence of LRP1β-CTF” value in the assay with LRP1β-CTF [1] was “strong increase”. The “level of membrane bound LRP1β-CTF” value in the assay with LRP1β-CTF [2] was “further increase”. With `O=C[C@@H](O)[C@@H](O)[C@H](O)[C@H](O)COP(=O)(O)O` [M6P, mannose-6-phosphate], in the assay with HMF fibroblasts, the inhibition at 10000 µM amounted to 82%. As for “49-mer: polypeptide sequence of 49 amino acids corresponding to the 349-397 fragment of the extra-cellular LRP1 β chain, SEQ ID NO: 5 (CRCLPGFLGDRCQYRQCSGYCENFGTCQMAADGSRQCRCTAYFEGSRCE)”, in the assay with pro-cath-D, the “competition for the binding of LRP1β (1-476) to GST-pro-cath-D” value is “competed efficiently”. For the same compound, the cleavage sites in assay [3] amounted to 3.
